Results: patent US10047105B2, “Gyrase inhibitors” (Merck Sharp & Dohme Corp., priority 2009, dated 2018)
≈ marks a conversion by molar mass, not a printed value.

How the values were obtained:
S. aureus ATCC 13709 = test: MIC, antibacterial potency, S. aureus; format: cell-based
S. pneumoniae ATCC 51916 = test: MIC, S. pneumoniae; format: cell-based
[1] = S. pneumoniae (Spn52), in µg/mL

| SMILES | MIC, SA (S. aureus ATCC 13709; S. aureus) [µg/mL] | MIC Spn52 (S. pneumoniae ATCC 51916; S. pneumoniae) [µg/mL] | MIC, SA (S. aureus ATCC 13709; S. aureus (SA), in µg/mL) | MIC Spn52 (S. pneumoniae ATCC 51916; [1]) |
| --- | --- | --- | --- | --- |
| CCc1[nH]c2nc(Sc3ccc4c(N)ncnc4c3)nc(Oc3cncc(OC)c3)c2c1Cl [700,687] | > 64 | > 64 |  |  |
| CCc1[nH]c2nc(Sc3ccc(S(=O)(=O)NCCN4CCOCC4)cc3)nc(N3CC(N)C3)c2c1Cl [700,596] | 32 (≈ 58 µM) | 32 (≈ 58 µM) |  |  |
| CCc1[nH]c2nc(Cc3cccnc3)nc(N3CC(N)C3)c2c1Cl [700,495] | 64 (≈ 187 µM) | > 64 |  |  |
| CCc1[nH]c2nc(Sc3cnc4nccnc4c3)nc(N3CC(CNC(=N)N)C3)c2c1Cl.O=C(O)C(F)(F)F [700,502] | 16 | > 64 |  |  |
| CCc1[nH]c2nc(Sc3ccc4c(N5CC[C@@H](N)C5)cc(C(=O)O)nc4c3)nc(N3CC[C@@H](N)C3)c2c1Cl [700,825] |  |  | 64 | >64 |
| CCc1[nH]c2nc(Sc3cnc4nccnc4c3)nc(N3CC(NS(=O)(=O)CC(F)(F)F)C3)c2c1Cl [700,436] | ≤ 0.5 | 1 (≈ 1.79 µM) |  |  |
| CCOc1nc(Nc2cnc3c(c2)nnn3C(C)C)nc2[nH]c(CC)c(Br)c12.O=C(O)C(F)(F)F [700,450] | ≤ 0.5 | 4 |  |  |
| CCc1[nH]c2nc(Sc3cnc4nccnc4c3)nc(NC[C@H](C)O)c2c1Cl [700,457] | 1 (≈ 2.4 µM) | 2 (≈ 4.81 µM) |  |  |
| CCc1[nH]c2nc(Oc3cccnc3)nc(Oc3cccnc3)c2c1Cl.O=C(O)C(F)(F)F [700,410] | 1 | 4 |  |  |
| CCc1[nH]c2nc(Sc3cnc4c(N)nc(C)nc4c3)nc(N3CC(N)C3)c2c1Cl.O=C(O)C(F)(F)F [700,515] | 1 | 1 |  |  |
| CCc1[nH]c2nc(Sc3nc(C(=O)O)c(Cl)s3)nc(N3CC(O)C3)c2c1Br [700,391] | > 64 | > 64 |  |  |
| CCc1[nH]c2nc(Oc3cnc4ccoc4c3)nc(Oc3cnc4ccoc4c3)c2c1Br [700,883] |  |  | <=0.5 | <=0.5 |
| CCc1[nH]c2nc(Sc3cnc4nccnc4c3)nc(N3CC4CCCNC4C3)c2c1Cl.O=C(O)C(F)(F)F (centres unmarked) [700,721] | 32 | 32 |  |  |
| CCc1[nH]c2nc(Sc3cnc4nccnc4c3)nc(NCCN3CCNCC3)c2c1Cl.O=C(O)C(F)(F)F.O=C(O)C(F)(F)F [700,511] | > 64 | > 64 |  |  |
| CCOc1nc(S(C)(=O)=O)nc2[nH]c(CC)c(Br)c12 [700,288] | > 64 | 64 (≈ 184 µM) |  |  |
| CCOc1nc(Oc2ccc3[nH]ccc3c2)nc2[nH]c(CC)c(Cl)c12.O=C(O)C(F)(F)F [700,699] | 2 | 64 |  |  |

| SMILES | MIC, SA (S. aureus ATCC 13709; S. aureus) [µg/mL] | MIC Spn52 (S. pneumoniae ATCC 51916; S. pneumoniae) [µg/mL] | MIC, SA (S. aureus ATCC 13709; S. aureus (SA), in µg/mL) | MIC Spn52 (S. pneumoniae ATCC 51916; [1]) |
| --- | --- | --- | --- | --- |
| CCc1[nH]c2nc(Sc3cnc4cccnc4c3)nc(N3C[C@@H]4[C@H](C3)[C@@]4(N)CN)c2c1Cl [700,885] |  |  | 2 | 4 |
| C#CCOC(=O)NC1CN(c2nc(Sc3ccc4ccc(C(=O)O)nc4c3)nc3[nH]c(CC)c(Cl)c23)C1 [700,809] |  |  | <=0.5 | 4 |
| CCc1[nH]c2nc(Nc3cnc4nccnc4c3)nc(N3CC(O)C3)c2c1Cl.O=C(O)C(F)(F)F [700,573] | > 64 | > 64 |  |  |
| CCc1[nH]c2nc(Oc3cnc4c(cnn4C)c3)nc(Oc3cccnc3)c2c1Cl [700,615] | ≤ 0.5 | 4 (≈ 9.48 µM) |  |  |
| CCc1[nH]c2nc(Nc3cnc4c(c3)nnn4C(C)C)nc(N3CC(O)C3)c2c1Br.O=C(O)C(F)(F)F [700,482] | > 64 | > 64 |  |  |
| CCc1[nH]c2nc(Sc3ccc4c(N)nc(CN5CCNCC5)nc4c3)nc(N3CC[C@@H](N)C3)c2c1Cl [700,847] |  |  | >64 | >64 |
| CCc1[nH]c2nc(Sc3cnc4c(C(C)C)nc(N)nc4c3)nc(OCCn3ccnc3)c2c1Cl.O=C(O)C(F)(F)F [700,507] | > 64 | > 64 |  |  |
| CCc1[nH]c2nc(Sc3cnc4nccnc4c3)nc(N3CC(C)(CN)C3)c2c1Cl.O=C(O)C(F)(F)F.O=C(O)C(F)(F)F [700,607] | 8 | 16 |  |  |
| CCOc1nc(Nc2cncnc2)nc2[nH]c(CC)c(Br)c12.O=C(O)C(F)(F)F [700,701] | 1 | 8 |  |  |
| CCc1[nH]c2nc(Sc3cnc4nccnc4c3)nc(N3CCC(N)CC3)c2c1Cl [700,541] | 4 (≈ 9.07 µM) | 4 (≈ 9.07 µM) |  |  |
| CCc1[nH]c2nc(Sc3cnc4nccnc4c3)nc(N3CCC4CNCC43)c2c1Cl.O=C(O)C(F)(F)F (centres unmarked) [700,564] | 8 | 16 |  |  |
| CCc1[nH]c2nc(Sc3cc(F)cc4nc(C)nc(N)c34)nc(N3CC[C@@H](N)C3)c2c1Cl [700,864] |  |  | 4 | 4 |
| CCc1[nH]c2nc(Sc3cnc4nccnc4c3)nc(N3CC(C(N)=O)C3)c2c1Cl.O=C(O)C(F)(F)F [700,670] | 16 | 16 |  |  |
| CCc1[nH]c2nc(Sc3ccc4nc(C)cc(C(=O)O)c4c3)nc(N3CC[C@@H](N)C3)c2c1Cl [700,708, (R)-6-(4-(3-aminopyrrolidin-1-yl)-5-chloro-6-ethyl-7H-pyrrolo[2,3-d]pyrimidin-2-ylthio)-2-methylquinoline-4-carboxylic acid] | 32 (≈ 66.3 µM) | > 64 |  |  |
| CCc1[nH]c2nc(Sc3cnc4nccnc4c3)nc(N3CCN(CCN)CC3)c2c1Cl.O=C(O)C(F)(F)F [700,444] | 4 | 8 |  |  |
